Tested on: 874868-142-R-J2-PDC complex spheroids, growth % test/control
Assay: Anticancer human tumor 874868-142-R-J2-PDC patient-derived head and neck squamous carcinoma cell line growth inhibition [CLK]
Settings: for IC50: curve of first compound; for viability, T/C: stronger effect = lower value
Text: A high-throughput screen of multi-cell type tumor spheroids was designed to identify active combinations of […] and targeted small molecules. Complex spheroids include a stromal component modeled by human endothelial cells (HUVEC) and fibroblasts modeled by human mesenchymal stem cells (MSCs). The concentration ranges selected for each drug and investigational agent were based upon clinically achievable concentrations if the clinical Cmax of the agent was known.
Compounds. The drugs and investigational agents: cirtuvivint (SM08502; NSC835563), CC-671 (NSC850746), vemurafenib (NSC761431), tapotoclax (NSC804041), sotorasib (NSC818433), adagrasib (NSC831453), MRTX-1133 (NSC836407), BAY2416964 (NSC825713), copanlisib (NSC816437), inavolisib (NSC800729), abemaciclib (NSC768073), osimertinib (NSC779217), entinostat (NSC756642), eltanexor (KPT-8602, NSC794443), venetoclax (NSC766270), ceralasertib (NSC777638), bortezomib (NSC756655), olaparib (NSC753686), talazoparib (NSC767125), alisertib (NSC759677), peposertib (NSC802822), gemcitabine (NSC613327), 5-fluorouracil (NSC19893), SN-38 (NSC673596), oxaliplatin (NSC266046), paclitaxel (NSC125973), and doxorubicin (NSC123127), were obtained from the National Cancer Institute (NCI) Developmental Therapeutics Program Chemical Repository. The FDA-approved anticancer drug set is available from the Developmental Therapeutics Program at https://dtp.cancer.gov/organization/dscb/obtaining/available plates.htm. […] The stock solutions were prepared in dimethyl sulfoxide (DMSO, Sigma-Aldrich, St. Louis, MO, cat. D2650), except for the platinum complexes which were prepared in saline (Quality Biological, Gaithersburg, MD, cat. 114-055-101), at 800-fold the tested concentration and stored at -70 degrees C prior to their use. All drugs and investigational agents were tested over a range starting from a high concentration at or near the clinical Cmax and decreasing in half-log increments. If the clinical Cmax for an agent had not been determined, the highest concentration tested was 10 microM.
Cell Culture. All cells were maintained in an incubator at 37 degrees C and 5% CO2 with 95% humidity. The PDC lines were cultured according to standard operating procedures established by the NCI PDMR. Briefly, all PDCs were thawed and cultured in Matrigel-coated flasks prepared with a working solution of 1X Ham's F-12 nutrient mix, without supplementation (Invitrogen, Waltham, MA, cat. 11765054), 100 U/mL penicillin-streptomycin (Invitrogen, cat. 15140122), and 2.5% Matrigel (Corning Inc., Corning, NY, cat. 354248) for the first three passages. The 947758-054-R-J2-PDC line was cultured in 6B/Colon 1A media, which includes advanced DMEM/F-12 (Thermo Fisher Scientific, cat. 12634028), 10 mM HEPES (Thermo Fisher Scientific, cat. 15630080), 1X GlutaMAX supplement (Thermo Fisher Scientific, cat. 35050061), 0.1 mg/mL primocin (InvivoGen, cat. ant-pm-2), 10% defined fetal bovine serum, heat inactivated (HyClone Laboratories Inc., cat. SH30070.03HI), 1.25 mM N-Acetyl-L-cysteine (Sigma-Aldrich, cat. A9165), 10 mM nicotinamide (Sigma-Aldrich, cat. N0636), 1X B-27 supplement (Thermo Fisher Scientific, cat. 17504044), 1X N-2 supplement (Thermo Fisher Scientific, cat. 17502048), and 10 microM Y-27632 dihydrochloride (Tocris Bioscience, cat. 1254). The 876862-298-R-J1-PDC was cultured in 6E media, which includes all 6B/Colon 1A media components plus 50% L-WRN conditioned media (ATCC, cat. CRL-3276), 50 ng/mL recombinant human EGF recombinant protein (hEGF; Thermo Fisher Scientific, cat. PHG0311), 10 ng/mL recombinant human fibroblast growth factor 10 (hGFG-10; PeproTech, cat. 100-26), 1 ng/mL recombinant human fibroblast growth factor 2 (hFGF-2; PeproTech, cat. 100-18B), and 1 µM prostaglandin E2 (PGE2; Tocris, cat. 2296). The 227483-062-R1-J1-PDC line was cultured in Panc media, containing all 6E components except hFGF-2, with the addition of 500 nM SB-431542 (Selleckchem, cat. S1067) and 10 nM gastrin (Tocris, cat. 3006). […]
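Also: spheroids exposed to the compounds for 7 days.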

Question: For CCCS(=O)(=O)Nc1ccc(F)c(C(=O)c2c[nH]c3ncc(-c4ccc(Cl)cc4)cc23)c1F + CN1CCN(c2cc(C(=O)Nc3cc4cc(-c5cnn(C)c5)ccc4cn3)ccn2)CC1, which IC50 (second compound 0.0316 µM) is on record?
Answer: > 10000 nM

Question: And the IC50 (second compound 0.1 µM)?
Answer: > 10000 nM

Question: And the IC50 (second compound 0.316 µM)?
Answer: < 31.6 nM

Question: What about the IC50 (second compound 1 µM) of the same compound?
Answer: < 31.6 nM

Question: What about the IC50 (second compound 3.16 µM) of the same compound?
Answer: < 31.6 nM

Question: And the IC50 (second compound 10 µM)?
Answer: < 31.6 nM

Question: And the viability, T/C (second compound 0.0316 µM, first compound 0.0316 µM)?
Answer: 99.5%

Question: And the viability, T/C (second compound 0.0316 µM, first compound 0.1 µM)?
Answer: 95.3%

Question: And the viability, T/C (second compound 0.0316 µM, first compound 0.316 µM)?
Answer: 97.4%

Question: What about the viability, T/C (second compound 0.0316 µM, first compound 1 µM) of the same compound?
Answer: 120%

Question: What about the viability, T/C (second compound 0.0316 µM, first compound 3.16 µM) of the same compound?
Answer: 104%

Question: And the viability, T/C (second compound 0.0316 µM, first compound 10 µM)?
Answer: 88.4%

Question: What about the viability, T/C (second compound 0.1 µM, first compound 0.0316 µM) of the same compound?
Answer: 71.4%

Question: What about the viability, T/C (second compound 0.1 µM, first compound 0.1 µM) of the same compound?
Answer: 82.1%

Question: What about the viability, T/C (second compound 0.1 µM, first compound 0.316 µM) of the same compound?
Answer: 101%

Question: And the viability, T/C (second compound 0.1 µM, first compound 1 µM)?
Answer: 103%

Question: And the viability, T/C (second compound 0.1 µM, first compound 3.16 µM)?
Answer: 99.2%

Question: What about the viability, T/C (second compound 0.1 µM, first compound 10 µM) of the same compound?
Answer: 67.2%

Question: What about the viability, T/C (second compound 0.316 µM, first compound 0.0316 µM) of the same compound?
Answer: 21.1%

Question: And the viability, T/C (second compound 0.316 µM, first compound 0.1 µM)?
Answer: 18.1%

Question: What about the viability, T/C (second compound 0.316 µM, first compound 0.316 µM) of the same compound?
Answer: 16%

Question: What about the viability, T/C (second compound 0.316 µM, first compound 1 µM) of the same compound?
Answer: 14.8%

Question: What about the viability, T/C (second compound 0.316 µM, first compound 3.16 µM) of the same compound?
Answer: 20.2%

Question: What about the viability, T/C (second compound 0.316 µM, first compound 10 µM) of the same compound?
Answer: 17.8%

Question: What about the viability, T/C (second compound 1 µM, first compound 0.0316 µM) of the same compound?
Answer: 0.34%

Question: And the viability, T/C (second compound 1 µM, first compound 0.1 µM)?
Answer: 0.78%

Question: And the viability, T/C (second compound 1 µM, first compound 0.316 µM)?
Answer: 0.38%

Question: What about the viability, T/C (second compound 1 µM, first compound 1 µM) of the same compound?
Answer: 0.32%

Question: And the viability, T/C (second compound 1 µM, first compound 3.16 µM)?
Answer: 0.26%

Question: And the viability, T/C (second compound 1 µM, first compound 10 µM)?
Answer: 3.04%

Question: And the viability, T/C (second compound 3.16 µM, first compound 0.0316 µM)?
Answer: 0.22%

Question: What about the viability, T/C (second compound 3.16 µM, first compound 0.1 µM) of the same compound?
Answer: 3.25%

Question: What about the viability, T/C (second compound 3.16 µM, first compound 0.316 µM) of the same compound?
Answer: 0.32%

Question: And the viability, T/C (second compound 3.16 µM, first compound 1 µM)?
Answer: 0.24%

Question: And the viability, T/C (second compound 3.16 µM, first compound 3.16 µM)?
Answer: 0.3%

Question: And the viability, T/C (second compound 3.16 µM, first compound 10 µM)?
Answer: 2.5%

Question: And the viability, T/C (second compound 10 µM, first compound 0.0316 µM)?
Answer: 0.34%

Question: What about the viability, T/C (second compound 10 µM, first compound 0.1 µM) of the same compound?
Answer: 0.84%

Question: What about the viability, T/C (second compound 10 µM, first compound 0.316 µM) of the same compound?
Answer: 0.18%

Question: And the viability, T/C (second compound 10 µM, first compound 1 µM)?
Answer: 0.18%

Question: And the viability, T/C (second compound 10 µM, first compound 3.16 µM)?
Answer: 0.19%

Question: What about the viability, T/C (second compound 10 µM, first compound 10 µM) of the same compound?
Answer: 2%

Reference: PubChem BioAssay AID2060601 (Molecular Pharmacology Branch, DTP, NCI, 2025)
